PMC12040169 (PLOS Biology, 2025)

Assay: in vitro
Conditions: human, hela cells, % viability

Structure (SMILES): O=C1CCC(=O)N1CCOc1nccnc1OC1CCN(Cc2ccc(Cl)cc2)CC1 [CBK084338]
- viability at 28.5 h, 10 µM: 108%

Structure (SMILES): O=C1CCC(=O)N1CCOc1nccnc1OC1CCN(Cc2ccc([N+](=O)[O-])cc2)CC1 [CBK084343]
- viability at 28.5 h, 10 µM: 95.7%

Structure (SMILES): O=C1CCC(=O)N1CCOc1nccnc1OC1CCN(Cc2ccccc2-c2ccccc2)CC1 [CBK084344]
- viability at 28.5 h, 10 µM: 110%

Structure (SMILES): O=C1CCC(=O)N1CCOc1nccnc1OC1CCN(CCOc2ccccc2)CC1 [CBK084354]
- viability at 28.5 h, 10 µM: 101%

Structure (SMILES): COc1ccc(CCN2CCC(Oc3nccnc3OCCN3C(=O)CCC3=O)CC2)cc1OC [CBK084359]
- viability at 28.5 h, 10 µM: 109%

Structure (SMILES): Clc1ccc(CN2CCC(Oc3cncc(OCC4COc5ccccc5O4)n3)C2)cc1 (stereo not drawn) [CBK084364]
- viability at 28.5 h, 10 µM: 94.7%

Structure (SMILES): c1cncc(CN2CCC(Oc3cncc(OCC4COc5ccccc5O4)n3)C2)c1 (stereo not drawn) [CBK084365]
- viability at 28.5 h, 10 µM: 96.5%

Structure (SMILES): NC(=O)CN1CCC(Oc2cncc(OCC3COc4ccccc4O3)n2)C1 (stereo not drawn) [CBK084372]
- viability at 28.5 h, 10 µM: 98.2%

Structure (SMILES): Cc1cccc(C)c1NC(=O)CN1CCC(Oc2cncc(OCC3COc4ccccc4O3)n2)C1 (stereo not drawn) [CBK084373]
- viability at 28.5 h, 10 µM: 98.5%

Structure (SMILES): CCN(CC)C(=O)CN1CCC(Oc2cncc(OCC3COc4ccccc4O3)n2)C1 (stereo not drawn) [CBK084374]
- viability at 28.5 h, 10 µM: 102%

Structure (SMILES): CCOC(=O)CN1CCC(Oc2cncc(OCC3COc4ccccc4O3)n2)C1 (stereo not drawn) [CBK084375]
- viability at 28.5 h, 10 µM: 92.6%

Structure (SMILES): O=c1[nH]c2ccccc2n1CCCN1CCC(Oc2cncc(OCC3COc4ccccc4O3)n2)C1 (stereo not drawn) [CBK084380]
- viability at 28.5 h, 10 µM: 94.4%

Structure (SMILES): CSCCN1CCC(Oc2cncc(OCC3COc4ccccc4O3)n2)C1 (stereo not drawn) [CBK084381]
- viability at 28.5 h, 10 µM: 105%

Structure (SMILES): c1ccc(CCN2CCC(Oc3cncc(OCC4COc5ccccc5O4)n3)C2)cc1 (stereo not drawn) [CBK084382]
- viability at 28.5 h, 10 µM: 93%

Structure (SMILES): c1ccc2c(c1)OCC(COc1cncc(OC3CCN(CC4CCCCC4)C3)n1)O2 (stereo not drawn) [CBK084387]
- viability at 28.5 h, 10 µM: 109%

Structure (SMILES): COc1ccc(CCN2CCC(Oc3cncc(OCC4COc5ccccc5O4)n3)C2)cc1OC (stereo not drawn) [CBK084389]
- viability at 28.5 h, 10 µM: 112%

Structure (SMILES): COc1ccc(Oc2cncc(OC3CCN(Cc4ccc(Cl)c(Cl)c4)C3)n2)cc1OC (stereo not drawn) [CBK084391]
- viability at 28.5 h, 10 µM: 115%

Structure (SMILES): COc1ccc(Oc2cncc(OC3CCN(CC(N)=O)C3)n2)cc1OC (stereo not drawn) [CBK084402]
- viability at 28.5 h, 10 µM: 93.8%

Structure (SMILES): COc1ccc(Oc2cncc(OC3CCN(CC(=O)Nc4c(C)cccc4C)C3)n2)cc1OC (stereo not drawn) [CBK084403]
- viability at 28.5 h, 10 µM: 101%

Structure (SMILES): CCN(CC)C(=O)CN1CCC(Oc2cncc(Oc3ccc(OC)c(OC)c3)n2)C1 (stereo not drawn) [CBK084404]
- viability at 28.5 h, 10 µM: 93.9%

Structure (SMILES): COc1ccc(Oc2cncc(OC3CCN(CCCn4c(=O)[nH]c5ccccc54)C3)n2)cc1OC (stereo not drawn) [CBK084406]
- viability at 28.5 h, 10 µM: 97.6%

Structure (SMILES): COc1ccc(Oc2cncc(OC3CCN(CCc4ccc(F)cc4)C3)n2)cc1OC (stereo not drawn) [CBK084409]
- viability at 28.5 h, 10 µM: 94.1%

Structure (SMILES): COc1ccc(Oc2cncc(OC3CCN(CC4CC4)C3)n2)cc1OC (stereo not drawn) [CBK084412]
- viability at 28.5 h, 10 µM: 89.3%

Structure (SMILES): O=[N+]([O-])c1ccc(CN2CCC(Oc3cncc(OCc4ccc(Cl)c(Cl)c4)n3)C2)cc1 (stereo not drawn) [CBK084426]
- viability at 28.5 h, 10 µM: 97.1%

Structure (SMILES): NC(=O)CN1CCC(Oc2cncc(OCc3ccc(Cl)c(Cl)c3)n2)C1 (stereo not drawn) [CBK084429]
- viability at 28.5 h, 10 µM: 101%

Structure (SMILES): Clc1ccc(COc2cncc(OC3CCN(CC4CC4)C3)n2)cc1Cl (stereo not drawn) [CBK084443]
- viability at 28.5 h, 10 µM: 86.5%

Structure (SMILES): Clc1ccc(CN2CCC(Oc3cncc(OCc4cccnc4)n3)C2)cc1Cl (stereo not drawn) [CBK084448]
- viability at 28.5 h, 10 µM: 84%

Structure (SMILES): NC(=O)CN1CCC(Oc2cncc(OCc3cccnc3)n2)C1 (stereo not drawn) [CBK084459]
- viability at 28.5 h, 10 µM: 98%

Structure (SMILES): Cc1cccc(C)c1NC(=O)CN1CCC(Oc2cncc(OCc3cccnc3)n2)C1 (stereo not drawn) [CBK084460]
- viability at 28.5 h, 10 µM: 87.6%

Structure (SMILES): CCN(CC)C(=O)CN1CCC(Oc2cncc(OCc3cccnc3)n2)C1 (stereo not drawn) [CBK084461]
- viability at 28.5 h, 10 µM: 92.4%

Structure (SMILES): Clc1ccc(CN2CCC(Oc3cncc(OCCN4CCOCC4)n3)C2)cc1Cl (stereo not drawn) [CBK084477]
- viability at 28.5 h, 10 µM: 91.4%

Structure (SMILES): c1ncc(OC2CCN(CCN3CCOCC3)C2)nc1OCCN1CCOCC1 (stereo not drawn) [CBK084492]
- viability at 28.5 h, 10 µM: 97.6%

Structure (SMILES): OCCCN1CCC(Oc2cncc(OCCN3CCOCC3)n2)C1 (stereo not drawn) [CBK084494]
- viability at 28.5 h, 10 µM: 95.9%
